Assay results: US20250163056A1, “NONMUSCLE MYOSIN II INHIBITORS” (The University of Florida Research Foundation, Inc., priority 2018, published 2025)
“And” between values parts separate entries of the source, which are not always exact repeats. Equal values may be shown once. Read-outs that look alike come from different tables or passages of the source.

Key:
Bovine cardiac myosin = Bovine cardiac myosin (Bos taurus (Bovine), UniProt Q9BE39); assay: Cardiac muscle myosin II actin-activated ATPase assay (NADH-coupled); assay type: biochemical
Bovine cardiac myosin, sequence (Q9BE39 whole entry): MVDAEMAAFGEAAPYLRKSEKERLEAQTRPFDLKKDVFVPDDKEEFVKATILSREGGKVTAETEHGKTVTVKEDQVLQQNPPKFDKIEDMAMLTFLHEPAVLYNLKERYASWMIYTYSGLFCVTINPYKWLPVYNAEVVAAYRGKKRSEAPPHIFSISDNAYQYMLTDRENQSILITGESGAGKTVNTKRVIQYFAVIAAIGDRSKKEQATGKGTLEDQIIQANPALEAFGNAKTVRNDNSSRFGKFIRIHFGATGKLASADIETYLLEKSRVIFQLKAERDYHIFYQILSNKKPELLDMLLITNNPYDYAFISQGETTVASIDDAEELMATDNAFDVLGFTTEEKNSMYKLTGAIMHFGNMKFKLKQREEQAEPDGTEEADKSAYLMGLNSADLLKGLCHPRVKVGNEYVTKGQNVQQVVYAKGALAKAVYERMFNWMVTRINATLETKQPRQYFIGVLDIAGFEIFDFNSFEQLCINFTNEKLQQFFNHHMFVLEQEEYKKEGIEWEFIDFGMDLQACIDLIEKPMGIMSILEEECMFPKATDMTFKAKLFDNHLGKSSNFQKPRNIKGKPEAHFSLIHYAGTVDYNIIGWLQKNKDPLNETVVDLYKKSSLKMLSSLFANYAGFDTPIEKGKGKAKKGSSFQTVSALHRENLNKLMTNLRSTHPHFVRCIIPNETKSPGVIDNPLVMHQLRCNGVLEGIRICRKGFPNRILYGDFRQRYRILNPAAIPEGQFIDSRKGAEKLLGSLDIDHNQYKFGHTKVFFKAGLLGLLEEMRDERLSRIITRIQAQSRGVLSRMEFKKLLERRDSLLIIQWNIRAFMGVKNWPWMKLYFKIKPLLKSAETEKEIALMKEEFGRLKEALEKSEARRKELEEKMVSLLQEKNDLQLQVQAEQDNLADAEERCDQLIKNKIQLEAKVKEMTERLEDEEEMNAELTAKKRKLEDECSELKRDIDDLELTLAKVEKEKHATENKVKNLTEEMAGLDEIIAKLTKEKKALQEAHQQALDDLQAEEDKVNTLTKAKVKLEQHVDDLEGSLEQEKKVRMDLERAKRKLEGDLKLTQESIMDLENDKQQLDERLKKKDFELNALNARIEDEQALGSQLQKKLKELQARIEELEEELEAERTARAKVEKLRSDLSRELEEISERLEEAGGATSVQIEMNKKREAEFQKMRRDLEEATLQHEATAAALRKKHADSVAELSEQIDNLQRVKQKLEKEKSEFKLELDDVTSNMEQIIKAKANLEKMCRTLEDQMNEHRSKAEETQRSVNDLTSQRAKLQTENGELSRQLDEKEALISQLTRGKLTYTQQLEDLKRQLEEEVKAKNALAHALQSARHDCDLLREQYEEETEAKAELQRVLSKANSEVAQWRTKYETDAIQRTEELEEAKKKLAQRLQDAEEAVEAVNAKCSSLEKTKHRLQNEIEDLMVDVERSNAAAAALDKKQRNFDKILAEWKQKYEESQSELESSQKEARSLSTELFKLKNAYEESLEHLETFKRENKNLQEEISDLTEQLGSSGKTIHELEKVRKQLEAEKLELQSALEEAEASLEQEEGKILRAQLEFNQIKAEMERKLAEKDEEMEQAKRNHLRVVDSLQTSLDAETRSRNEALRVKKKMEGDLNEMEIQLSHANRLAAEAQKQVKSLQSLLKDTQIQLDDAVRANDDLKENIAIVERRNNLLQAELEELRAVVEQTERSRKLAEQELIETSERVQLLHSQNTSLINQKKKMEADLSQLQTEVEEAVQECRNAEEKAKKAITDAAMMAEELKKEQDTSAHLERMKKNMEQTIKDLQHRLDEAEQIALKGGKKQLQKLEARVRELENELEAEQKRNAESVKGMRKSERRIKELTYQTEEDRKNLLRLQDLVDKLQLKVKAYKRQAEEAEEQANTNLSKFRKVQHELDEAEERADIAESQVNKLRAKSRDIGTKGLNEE
Bovine cardiac myosin, sequence (P85100 whole entry partner): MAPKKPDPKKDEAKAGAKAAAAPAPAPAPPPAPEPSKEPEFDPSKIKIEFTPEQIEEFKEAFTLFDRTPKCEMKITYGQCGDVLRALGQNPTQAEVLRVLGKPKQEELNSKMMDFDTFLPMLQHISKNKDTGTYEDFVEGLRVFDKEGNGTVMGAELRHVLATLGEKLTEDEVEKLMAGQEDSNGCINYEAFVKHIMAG
Bovine cardiac myosin, sequence (Q3SZE5 whole entry partner): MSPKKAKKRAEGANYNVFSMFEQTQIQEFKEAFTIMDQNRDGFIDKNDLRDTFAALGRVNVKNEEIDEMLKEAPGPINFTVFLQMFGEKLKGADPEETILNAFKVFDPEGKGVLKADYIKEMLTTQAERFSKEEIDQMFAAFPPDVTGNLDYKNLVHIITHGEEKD
Outline: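 Inhibitory constants came from a quadratic one-to-one binding fit of 16-point dose-responses (highest final 50 uM, triplicate). Rates were NADH-calibrated fluorescence slopes over 30 min at 25° C, with 300 nM bovine cardiac myosin, 10 μM actin and 1 mM ATP coupled through PK/LDH in pH 7.0 MOPS buffer.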

Rabbit skeletal myosin = assay: Skeletal muscle myosin II actin-activated ATPase assay; assay type: biochemical; conditions: 20 nM skeletal muscle myosin II; read-out: SKMMII KI
Outline: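 Inhibitory constants come from a quadratic one-site fit of 16-point, triplicate dose-response data, highest compound concentration 50 uM. Rates are slopes of NADH fluorescence decline over 30 min, coupling ATP turnover of 20 nM rabbit skeletal myosin II with 10 μM actin and 1 mM ATP via PK/LDH, pH 7.0, 25 °C.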

[1] = tested on: hiPS cardiomyocytes (Cor.4U CMs); assay: Cardiac safety assay 1: beating parameters of cardiomyocytes (xCELLigence RTCA Cardio); assay type: cell-based, human; conditions: hiPS-derived cardiomyocytes
Protocol: The spontaneous contractions of cardiomyocytes (CMs) is measured label-free in real time using the ACEA xCELLigence RTCA Cardio instrument. All measurements are performed at 37° C. in a cell culture incubator, allowing for spontaneous beating of CMs at physiological conditions. Cor.4U CMs are seeded at 3×10^4 cells/well in 180 μl/well maintenance medium. Prior to seeding, a background impedance measurement (plate plus medium) is performed. The contraction of CMs involves cyclic modulation of cell morphology and adhesion inducing a delta change in impedance. From the cyclic changes in impedance a beating frequency, amplitude and effects on beating pattern can be calculated. Time point “0” (baseline) is recorded 10× for 20 seconds at 1 minute intervals. Thereafter, compounds and control (0.1% DMSO) are added to the wells and effects are measured 30 minutes later. Vehicle control is 0.1% DMSO and positive control is 100 nM isoproterenol. Compounds are tested at 0.1, 0.3, 1.0 and 3.0 uM. Data is collected at 5, 10, 15, 20 and 30 minutes, and 1, 4, 6, 12 and 24 hours post-incubation.

METH-associated memory = assay: METH-associated memory, conditioned place preference (CPP) assay; assay type: in vivo, mice and rats; conditions: single intra-BLC or IP administration (IP 10 mg/kg)
Description: In 2013, we published the finding that depolymerization of actin in the AMY disrupts the storage of METH-associated memories in a selective, retrieval-independent manner^65. Because of the limited clinical potential of actin depolymerizing agents, we turned to NMII, a molecular motor we previously found to be a key regulator of memory, synaptic plasticity (long-term potentiation [LTP]) and actin polymerization in dendritic spines^59 63. Through a series of experiments in a recently published studies, we detailed NMII's potential as a therapeutic target for SUD relapse^52,74-76.
The potential for systemic NMII inhibition to selectively target METH-associated memories in the way that intra-AMY administration does was also investigated. […] IP administered Blebbistatin also disrupts reconsolidation of memories for cocaine, nicotine and mephedrone, a result with additional potential therapeutic relevance in treating relapse^75-76. In addition, the BLC spine density increase that accompanies a METH-associated memory is reversed by Blebbistatin (FIG. 3C), without altering the spine density increase associated with a fear memory (FIG. 3D)^65, 74.

various myosin IIs = conditions: reported in the literature; read-out: biochemical IC50 values in various myosin IIs; cited from earlier work

Ki (Bovine cardiac myosin; 300 nM cardiac myosin, 10 μM actin, 25° C., read-out: CMMII KI): 1.5 µM | CMMII/NMII Ratio (Bovine cardiac myosin; cardiac Ki relative to NMII EC50): 0.56 | Ki (Bovine cardiac myosin; cardiac muscle myosin II, read-out: CMMII Ki): 0.67 µM | Ratio CMMII:NMII Ki/EC50 (Bovine cardiac myosin; cardiac myosin II Ki over nonmuscle myosin II EC50): 0.789 and 0.8 | Ki (Rabbit skeletal myosin): 0.36 µM
Compound: Cc1ccc2c(c1)C(=O)[C@]1(O)CCN(c3ccccc3)C1=N2 [Blebbistatin, reference compound]
Qualitative impact on contractility (e.g. Full = Complete inhibition of contraction) ([1]; 0.1 uM): No | Qualitative impact on contractility (e.g. Full = Complete inhibition of contraction) ([1]; 0.3 uM): Partial | Qualitative impact on contractility (e.g. Full = Complete inhibition of contraction) ([1]; 1.0 uM): 1.0u M: Full 3.0 uM: Full | Change in amplitude at 1 uM @ 15 min ([1]; 1 uM, 15 min): −57.9 ± 12.8% | Qualitative impact on contractility (e.g. Full = Complete inhibition of contraction) ([1]; 3.0 uM): 1.0u M: Full 3.0 uM: Full | METH-associated memory (METH-associated memory; listed as Blebb): disrupt a METH-associated memory | METH-associated memory (METH-associated memory; listed as blebbistatin): disrupted | IC50 (various myosin IIs): 1.8 to 9 µM
